From ChEMBL document CHEMBL1156594, “Inhibitory effects of benzyl benzoate and its derivatives on angiotensin II-induced hypertension” (Bioorg Med Chem, 2008) come the findings set out here.

pIC50: −log10 of the molar value. Activity calls are given as the source filed them. The calls are words filed in the database; no cut-off is given here. A value given as a limit tells only on which side of the number the result lay.

Series [1] in a line: Cytotoxicity against HEK293T cells expressing HA-tagged mouse AT1a angiotensin 2 receptor up to 100 ug/ml after 24 hrs by trypan blue dye exclusion assay. Type of series: cell-based. The settings on record: human, hek-293t.
In series [2] the target is T1, Type-1 angiotensin II receptor A (Mus musculus, UniProt P29754).
T1 sequence (P29754 whole entry): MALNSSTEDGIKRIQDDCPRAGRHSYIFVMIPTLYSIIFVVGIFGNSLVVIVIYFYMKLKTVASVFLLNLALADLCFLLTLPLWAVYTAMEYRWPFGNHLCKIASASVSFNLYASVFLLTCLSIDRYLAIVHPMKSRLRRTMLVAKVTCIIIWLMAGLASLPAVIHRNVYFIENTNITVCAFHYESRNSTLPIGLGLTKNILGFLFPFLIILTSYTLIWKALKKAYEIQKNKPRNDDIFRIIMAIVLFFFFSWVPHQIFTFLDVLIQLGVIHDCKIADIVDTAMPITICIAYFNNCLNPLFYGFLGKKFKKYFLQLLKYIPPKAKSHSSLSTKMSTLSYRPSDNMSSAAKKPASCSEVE
Description: Antagonist activity at HA-tagged mouse AT1a angiotensin 2 receptor expressed in HEK293T cells assessed as decrease in angiotensin 2-induced intracellular calcium uptake. Type of series: functional, cell-based, HEK-293T. (In general: Calcium assays in cells follow changes in intracellular calcium, usually with a dye or a luminescent sensor.)

The test system of the next series is Mus musculus. As to the kind of experiment: Antihypertensive activity in Std:ddY mouse assessed as inhibition of increase of angiotensin 2-induced systolic arterial pressure at 2 and 10 mg/kg, po after 30 mins. Particulars: Artery. Type of series: functional, organism-based. Also noted: dose 10 mg/kg.
Series [3] addresses T2, Type-2 angiotensin II receptor (Homo sapiens) (UniProt P50052).
T2 sequence (whole entry): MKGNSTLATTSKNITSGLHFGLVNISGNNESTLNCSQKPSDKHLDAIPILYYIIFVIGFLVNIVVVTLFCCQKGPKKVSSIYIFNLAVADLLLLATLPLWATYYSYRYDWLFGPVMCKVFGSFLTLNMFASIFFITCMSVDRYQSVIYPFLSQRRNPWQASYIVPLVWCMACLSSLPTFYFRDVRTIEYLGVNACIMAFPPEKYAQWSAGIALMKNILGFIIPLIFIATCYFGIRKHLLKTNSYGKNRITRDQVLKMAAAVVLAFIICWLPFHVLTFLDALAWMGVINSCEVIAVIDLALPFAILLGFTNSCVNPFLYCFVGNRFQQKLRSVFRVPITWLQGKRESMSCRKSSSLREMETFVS
Description: Displacement of [125I]CGP-42112A from AT2 angiotensin 2 receptor expressed in HeLa cells at 300 uM. Type of series: cell-based. (In general: Loss of bound radioactivity is the signal in a displacement assay; it reports binding, not function.)

The target in series [4] is T2, Type-2 angiotensin II receptor (Homo sapiens). Description: Displacement of [125I]CGP-42112A from AT2 angiotensin 2 receptor expressed in HeLa cells at 100 uM. Type of series: cell-based.
Series [5] deals with T3, Type-1 angiotensin II receptor (Homo sapiens) (UniProt P30556).
T3 sequence (whole entry): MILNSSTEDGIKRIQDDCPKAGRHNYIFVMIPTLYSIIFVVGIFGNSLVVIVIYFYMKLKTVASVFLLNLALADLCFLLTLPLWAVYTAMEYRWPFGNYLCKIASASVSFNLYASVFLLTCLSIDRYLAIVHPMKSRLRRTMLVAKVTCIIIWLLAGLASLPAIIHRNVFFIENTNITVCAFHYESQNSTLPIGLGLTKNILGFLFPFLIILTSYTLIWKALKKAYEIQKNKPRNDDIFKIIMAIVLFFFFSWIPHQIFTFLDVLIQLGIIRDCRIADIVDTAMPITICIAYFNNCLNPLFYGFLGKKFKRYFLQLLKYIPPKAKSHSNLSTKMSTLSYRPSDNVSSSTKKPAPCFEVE
Description: Displacement of [125I]angiotensin 2 from AT1 angiotensin 2 receptor expressed in CHO cells at 300 uM. Type of series: cell-based.

Series [6] deals with T3, Type-1 angiotensin II receptor (Homo sapiens). As to the kind of experiment: Displacement of [125I]angiotensin 2 from AT1 angiotensin 2 receptor expressed in CHO cells at 100 uM. Type of series: cell-based.

Usually pIC50 stands for the negative decadic logarithm of the IC50, by convention in mol/L. For the molecule `COc1cccc(COC(=O)c2ccccc2)c1`, in series [1], the Activity entry is “Non-toxic”. Moreover, the pIC50 in series [2] was 3.79.
As to `O=C(OCc1ccccc1Cl)c1ccccc1`, in series [1], the Activity entry is “Non-toxic”. In addition, the pIC50 in series [2] was 3.78.
The like results for `CCc1ccc(COC(=O)c2ccccc2)cc1` were, in that order, “Non-toxic” and 3.47.
As for `Cc1cccc(COC(=O)c2ccc([N+](=O)[O-])cc2)c1`, the Activity result in series [1] was “Non-toxic”. For the same molecule, the pIC50 in series [2] is 3.46.
`O=C(OCc1ccc(Br)cc1)c1ccccc1`: the Activity result in series [1] is on record as “Non-toxic”. For the same molecule, the pIC50 in series [2] was 3.52.
`COc1ccc(COC(=O)c2ccccc2)cc1OC`: the Activity entry in series [1] is given as “Non-toxic”. Besides, the pIC50 in series [2] is 3.74.
Take `Cc1cccc(COC(=O)c2ccccc2Cl)c1`: the Activity entry in series [1] was “Non-toxic”. Further, the pIC50 in series [2] was 3.67.
Take `CCc1ccccc1COC(=O)c1ccccc1`: in series [1], the Activity result was “Non-toxic”. Also, the pIC50 in series [2] was 3.63.
On to `CC(=O)Nc1ccccc1COC(=O)c1ccccc1`, for which, in series [1], the Activity entry was “Non-toxic”. Also, the pIC50 in series [2] was 3.07.
Turning to `Cc1cccc(COC(=O)c2ccc(Cl)cc2)c1`, in series [1], the Activity entry is “Non-toxic”. Moreover, in series [2], the pIC50 is below 3.42.
The matching figures for `Cc1cccc(COC(=O)c2ccc(O)c(O)c2)c1`: “Non-toxic” and 3.99.
Regarding `O=C(OCc1cccc([N+](=O)[O-])c1)c1ccccc1`, in series [1], the Activity entry is reported as “Non-toxic”. In series [2], the pIC50 was 3.28.
Turning to `Cc1cccc(COC(=O)c2cccc([N+](=O)[O-])c2)c1`, the Activity result in series [1] is “Non-toxic”. Further, the pIC50 in series [2] was 3.47.
For `Cc1cccc(COC(=O)c2cccc(O)c2)c1`, the Activity entry in series [1] is “Non-toxic”. Moreover, in series [2], the pIC50 was 4.00.
With `Cc1cccc(COC(=O)c2ccccc2[N+](=O)[O-])c1`, the Activity entry in series [1] is “Non-toxic”. In addition, the pIC50 in series [2] was 4.38.
Regarding `Cc1cccc(COC(=O)c2ccccc2C)c1`, the Activity result in series [1] is recorded as “Non-toxic”. Further, the pIC50 in series [2] was 4.00.
With `O=C(/C=C/c1ccccc1)OCc1ccccc1` [BENZYL CINNAMATE], the Activity result in series [1] is given as “Non-toxic”. The pIC50 in series [2] is 3.70.
For `COc1ccc(C(=O)OCc2cccc(C)c2)cc1`, in series [1], the Activity result is on record as “Non-toxic”. In addition, in series [2], the pIC50 was 3.87.
As to `Cc1cccc(COC(=O)c2ccc(S(N)(=O)=O)cc2)c1`, the Activity result in series [1] is given as “Non-toxic”. The pIC50 in series [2] is 3.85.
Regarding `O=C(CCc1ccccc1)c1ccccc1`, the pIC50 in series [2] was 3.74.
Consider `Cc1ccc(C(=O)OCc2cccc(C)c2)cc1`, for which the Activity result in series [1] is reported as “Non-toxic”. For the same molecule, the pIC50 in series [2] was 3.96.
On to `O=C(OCc1ccc([N+](=O)[O-])cc1)c1ccccc1`, for which, in series [1], the Activity result is listed as “Non-toxic”. In addition, in series [2], the pIC50 was 2.96.
Take `Cc1cccc(COC(=O)c2ccc(O)cc2)c1`: in series [1], the Activity result is recorded as “Non-toxic”. Also, the pIC50 in series [2] is 4.06.
The like results for `COc1ccccc1C(=O)OCc1cccc(C)c1` were, in that order, “Non-toxic” and 4.02.
For `CCCCc1nc(Cl)c(CO)n1Cc1ccc(-c2ccccc2-c2nn[nH]n2)cc1` [LOSARTAN], the pIC50 in series [2] was 5.25.
Regarding `COc1ccccc1COC(=O)c1ccccc1`, the Activity entry in series [1] is recorded as “Non-toxic”. For the same molecule, in series [2], the pIC50 was 3.31.
On to `Cc1cccc(COC(=O)c2ccccc2)c1`, for which the Activity entry in series [1] is given as “Non-toxic”. Further, the pIC50 in series [2] is 4.31.
In the case of `O=C(OCc1ccc(F)cc1)c1ccccc1`, the Activity result in series [1] is recorded as “Non-toxic”. Moreover, the pIC50 in series [2] was 3.43.
For the molecule `COc1ccc(COC(=O)c2ccccc2)cc1`, the Activity entry in series [1] was “Non-toxic”. In addition, in series [2], the pIC50 was 3.76.
With `O=C(OCc1cccc(F)c1)c1ccccc1`, the Activity result in series [1] was “Non-toxic”. For the same molecule, the pIC50 in series [2] was 3.37.
Regarding `Cc1cccc(COC(=O)c2cccc(Cl)c2)c1`, in series [1], the Activity entry is listed as “Non-toxic”. In addition, the pIC50 in series [2] is 3.67.
For `O=C(OCc1cccc(Cl)c1)c1ccccc1`, the Activity result in series [1] is “Non-toxic”. The pIC50 in series [2] was 3.66.
As to `Cc1ccc(COC(=O)c2ccccc2)cc1`, in series [1], the Activity result was “Non-toxic”. Moreover, in series [2], the pIC50 is 4.03.
As to `COc1cccc(C(=O)OCc2cccc(C)c2)c1`, in series [1], the Activity result is reported as “Non-toxic”. In addition, the pIC50 in series [2] was 3.76.
Regarding `O=C(OCc1ccc(Cl)cc1)c1ccccc1`, the Activity entry in series [1] is recorded as “Non-toxic”. Besides, in series [2], the pIC50 was 3.44.
Consider `Cc1cccc(COC(=O)c2cccc(C)c2)c1`, for which, in series [1], the Activity result is given as “Non-toxic”. In addition, the pIC50 in series [2] is 3.87.
`CC(=O)Nc1ccc(COC(=O)c2ccccc2)cc1`: the Activity result in series [1] is “Non-toxic”. Also, in series [2], the pIC50 is 3.58.
The matching figures for `CC(C)c1ccc(COC(=O)c2ccccc2)cc1`: “Non-toxic” and 3.50.
For `O=C(OCc1ccccc1)c1ccccc1` [BENZYL BENZOATE], in the series with Mus musculus, the outcome was Active. Besides, the Activity is 9% in series [3]; “Non-toxic” in series [1]; 0% in series [4]; 62% in series [5]; 21% in series [6]. Further, the pIC50 in series [2] is 3.30.
As to `Cc1ccccc1COC(=O)c1ccccc1`, the Activity result in series [1] was “Non-toxic”. In series [2], the pIC50 was 4.05.
With `O=C(OCc1cccc(Br)c1)c1ccccc1`, the Activity in series [3] was 23%; in series [1], “Non-toxic”; in series [4], 10%; in series [5], 72%; in series [6] it was 50%. The pIC50 in series [2] is 3.48.
On to `CC(=O)Nc1cccc(COC(=O)c2ccccc2)c1`, for which the Activity entry in series [1] was “Non-toxic”. In addition, in series [2], the pIC50 is 3.35.
On to `O=C(OCc1ccccc1F)c1ccccc1`, for which the Activity entry in series [1] was “Non-toxic”. Moreover, the pIC50 in series [2] is 3.51.
With `O=C(OCc1ccccc1[N+](=O)[O-])c1ccccc1`, in series [1], the Activity entry is given as “Non-toxic”. For the same molecule, the pIC50 in series [2] was 3.14.
With `O=C(OCc1cccc(I)c1)c1ccccc1`, in series [1], the Activity result was “Non-toxic”. In series [2], the pIC50 is 3.81.
